{"source": "patent US20250108036A1", "about": "“COMPOSITIONS FOR REMOVING SENESCENT CELLS AND USES THEREOF” (LIFECEUTIX CO., LTD., priority 2021, published 2025)", "key": {"SAOS-2": {"system": "SAOS-2", "test": "CellTiter-Glo cell viability of senescent SAOS-2 cancer cells (Example 2-2)", "assay_type": "cell-based, human", "conditions": "DOX → LX (LX-112 5 μM)", "procedure": "The standard for treating various cancers, including osteosarcoma, is repeated chemotherapy. Accordingly, aging was induced in SAOS-2 in the same manner as in Example 2-1, and then (i) treated again with doxorubicin (DOX→DOX) or (ii) treated with the LX-112 (5 μM) composition (DOX→LX-112)."}, "SA-β-gal": {"system": "SA-β-gal", "test": "SA-β-gal staining of tissue sections of naturally aged mice (Example 7-3)", "assay_type": "in vivo, C57BL6J mice", "conditions": "stained area, LX-112 70 mg/kg oral daily 21 days", "procedure": "(§1) After 22-month-old female C57BL6J mice (purchased from KRIBB Laboratory Animal Resource Center) were adapted to the experimental environment for one week, the aged mice were randomized into an experimental group and a control group. 8-week-old mice that were not aged were used as controls. LX-112 was mixed with 0.5% CMC-Na solution (purchased from Sigma) and administered orally at a concentration of 70 mg/kg daily for 21 days. The control group was administered only the solution in the same volume. After drug administration was completed, the method described in each Example below was performed.\nThe mouse was sacrificed, tissue sections were prepared from the organ tissues of each region, and stained for an aging marker (SA-β-gal) in the same manner as Example 1-1. Specifically, fat was removed from the tissues of each area collected from mice and fixed in 4% formalin at room temperature for more than 24 hours. For cryopreservation, the cells were placed in 30% sucrose for more than 8 hours and then rapidly frozen in cryoprotectant OCT medium for cryosectioning. The rapidly frozen tissue was commissioned to Histoa, a company specializing in histopathology services, and frozen sections were produced. The prepared frozen tissue sections were cut to a thickness of 8 μm, sectioned on a slide cover, dried at room temperature for 30 minutes, and then stored at −80° C. until use. After staining the aging marker (SA-β-gal), the images were taken through an optical microscope, and the area of the stained area was calculated using the Image J program and quantified by normalizing it based on the total area. […] FIG. 2 is a photo result of staining of adipose tissue."}, "lipofuscin": {"system": "lipofuscin", "test": "lipofuscin (Sudan Black B) staining of muscle of naturally aged mice (Example 7-4)", "assay_type": "in vivo, C57BL6J mice", "conditions": "stained area, LX-112 70 mg/kg oral daily 21 days", "procedure": "as §1\nMice was sacrificed and tissue sections from muscle tissue were prepared in the same manner as in Example 7-3. Lipofuscin is a degenerative abnormal complex of proteins and lipids produced in cell lysosomes with aging and is a marker of aging-related degeneration. The amount of lipofuscin was measured as follows: the sections were stained using Sudan Black B (purchased from Sigma) and photographed, and then the area of the stained area was calculated using the Image J program and quantified by normalizing it based on the total area."}, "[1]": {"test": "open field test in obesity-aged mice (Example 9-4)", "assay_type": "in vivo, C57BL6J mice", "conditions": "LX-112 70 mg/kg oral daily 21 days, DIO without LX = 100%", "procedure": "15-week-old male C57BL6J mice (purchased from Jackson Laboratories), whose obesity was induced by a high-fat diet, were adapted to the experimental environment for one week, and then the mice were randomized into an experimental group and a control group. LX-112 was mixed with 0.5% CMC-Na solution (purchased from Sigma) and administered orally at a concentration of 70 mg/kg daily for 21 days. The control group was administered only the solution in the same volume. After drug administration was completed, the method described in each Example below was performed. Mice were sacrificed and the weight of adipose tissue in each area was measured.\nAccordingly, the open field test was performed to analyze lethargy due to anxiety and depression caused by obesity in mice using the same method as Example 7-7. […] Table 58 calculates the amounts of activity after aging induced by obesity as 100% and compares it with the amount of activity evaluation after treatment with LX-112."}, "p16, MMP3, IL6": {"system": "p16, MMP3, IL6", "test": "p16, MMP3, IL6 mRNA qRT-PCR in groin fat of obese mice given senescent cells killed by test compounds (Example 16, Table 72)", "assay_type": "in vivo, C57BL6J mice", "conditions": "obese mice administered senescent cells whose death was induced by the test compound", "outline": "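Mouse groin-fat preadipocytes made senescent with 250 nM doxorubicin for 24 h plus 21 days, killed by test compounds, and given subcutaneously (5×10^5 cells) to female C57BL6J mice. Senescent preadipocytes then given i.p., followed by 8-week high-fat diet. Groin-fat p16, MMP3 and IL6 mRNA measured by qRT-PCR as % of mice without killed-cell administration.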"}}}
{"smiles": "O=c1c2ccccc2[se]n1CCn1[se]c2ccccc2c1=O", "note": "[LX-112, 1,2-[bis(1,2-benzisoselenazolone-3(2H)-ketone)]ethane]", "values": [{"measurement": "Survival (%)", "setting": "SAOS-2; 3 d", "result": "35 (±4) %"}, {"measurement": "Survival (%)", "setting": "SAOS-2; 7 d", "result": "14 (±5) %"}, {"measurement": "SA-β-gal (%) Kidney", "setting": "SA-β-gal", "result": "55 (±17) %"}, {"measurement": "SA-β-gal (%) Liver", "setting": "SA-β-gal", "result": "58 (±6) %"}, {"measurement": "SA-β-gal (%) Lung", "setting": "SA-β-gal", "result": "67 (±6) %"}, {"measurement": "SA-β-gal (%) Skin", "setting": "SA-β-gal", "result": "68 (±9) %"}, {"measurement": "SA-β-gal (%) eWAT", "setting": "SA-β-gal", "result": "38 (±7) %"}, {"measurement": "Lipofuscin (%) Muscle", "setting": "lipofuscin", "result": "71 (±6) %"}, {"measurement": "Open Field Test Time in Center (%)", "setting": "[1]", "result": "137.5 (±15) %"}]}
{"smiles": "COC(=O)c1ccc([C@H]2c3[nH]c4ccccc4c3C[C@H](C(=O)OC)N2C(=O)CCl)cc1", "note": "[LX-405]", "values": [{"measurement": "IL6 mRNA (%)", "setting": "p16, MMP3, IL6", "result": "68.7 (±9.1) %"}, {"measurement": "MMP3 mRNA (%)", "setting": "p16, MMP3, IL6", "result": "80.5 (±2.8) %"}, {"measurement": "p16 mRNA (%)", "setting": "p16, MMP3, IL6", "result": "72.4 (±3.9) %"}]}
